According to the NIST ThermoML archive (doi:10.1016/j.jct.2018.08.035):
Numbers after ± are expanded uncertainties.

Conditions: 298.15 K; 101.33 kPa; Liquid; Vibrating tube method

SMILES	mass density
CCC(O)CC [3-pentanol]	815.8 ± 1.7 kg/m3
C[N+](=O)[O-] [nitromethane]	1131.1 ± 2.3 kg/m3
